In PMC8173610 (Biochemistry, 2021):

Biological target: microtubule-associated protein tau (Homo sapiens, UniProt P10636)
Assay type: biochemical

microtubule-associated protein tau, sequence (P10636 1-441 isoform P10636-8): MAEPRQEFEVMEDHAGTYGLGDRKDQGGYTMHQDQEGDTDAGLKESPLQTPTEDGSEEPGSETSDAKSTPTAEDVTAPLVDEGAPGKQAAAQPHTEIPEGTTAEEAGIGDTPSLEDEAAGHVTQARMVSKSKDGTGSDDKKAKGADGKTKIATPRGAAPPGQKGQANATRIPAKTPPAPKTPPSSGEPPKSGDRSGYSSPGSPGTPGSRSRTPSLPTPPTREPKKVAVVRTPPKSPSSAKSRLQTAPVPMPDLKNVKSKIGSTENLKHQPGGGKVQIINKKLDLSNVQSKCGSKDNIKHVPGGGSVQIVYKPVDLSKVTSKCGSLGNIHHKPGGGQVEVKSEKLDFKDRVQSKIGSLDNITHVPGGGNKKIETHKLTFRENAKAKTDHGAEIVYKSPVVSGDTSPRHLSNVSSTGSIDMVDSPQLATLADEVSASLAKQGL

Structure (SMILES): CCCCCCCCCc1cc2cc(O)c(C)c(O)c2cn1 [ANTC-15, 7-methyl-3-nonylisoquinoline-6,8-diol]
- IC50: 35 µM
